The test deals with Btk (Homo sapiens (Human), UniProt Q06187). The test can be described thus: Btk in vitro inhibitory activity (one of Method A TR-FRET, Method B mobility shift, Method C radiometric filter binding). Particulars: determined using one of the methods outlined in Example 36a, 36b and 36c. The class given is biochemical. On the procedure:
Btk kinase activity is determined using a time-resolved fluorescence resonance energy transfer (TR-FRET) methodology. Measurements are performed in a reaction volume of 50 μL using 96-well assay plates. […] The reaction is quenched by the addition of 1.2 equivalents of EDTA (relative to divalent cation) in 25 μL of 1× Lance buffer (Perkin-Elmer). […] The TR-FRET signal is measured on a multimode plate reader with an excitation wavelength (λEx) of 330 nm and detection wavelengths (λEm) of 615 and 665 nm. Activity is determined by the ratio of the fluorescence at 665 nm to that at 615 nm. For each compound, enzyme activity is measured at various concentrations of compound. Negative control reactions are performed in the absence of inhibitor in replicates of six, and two no-enzyme controls are used to determine baseline fluorescence levels Inhibition constants, Ki(app), ware obtained using the program BatchKi (Kuzmic et al. (2000), Anal. Biochem. 286:45-50). IC50s are obtained according to the equation: IC50={Ki(app)/(1+[ATP]/Km^ATP)}+[E]total/2;
Kinase activity is measured in vitro using electrophoretic mobility shift assay. The kinase reactions are assembled in a total volume of 25 μL in 384 well plates. […] The reaction is incubated for one hour and is quenched by the addition of 45 μL of termination buffer (100 mM HEPES, pH7.5, 0.01% Triton X-100, 30 mM EDTA). The terminated reactions are analyzed using 12 channel LabChip® 3000 microfluidic detection instrument (Caliper Life Sciences). […] Change in the relative fluorescence intensity of the substrate and product peaks is the parameter measured, reflecting enzyme activity. In the presence of an inhibitor, the ratio between product and substrate is altered: the signal of the product decreases, while the signal of the substrate increases.
Activity in each sample is determined as the product to sum ratio (PSR):P/(S+P), where P is the peak height of the product peptide and S is the peak height of the substrate peptide. For each compound, enzyme activity is measured at various concentrations (12 concentrations of compound spaced by 3× dilution intervals). Negative control samples (0%-inhibition in the absence of inhibitor) and positive control samples (100%-inhibition, in the presence of 20 mM EDTA) are assembled in replicates of four and are used to calculate %-inhibition values for each inhibitor at each concentration. Percent inhibition (Pinh) is determined using following equation: Pinh=(PSR0%−PSRinh)/(PSR0%−PSR100%)*100, where PSRinh is the product sum ratio in the presence of inhibitor, PSR0% is the average product sum ration in the absence of inhibitor and PSR100% is the average product sum ratio in 100%-inhibition control samples;
The IC50 values of inhibitors are determined by 4 parameter sigmoidal dose-response model fitting of the inhibition curves (Pinh versus inhibitor concentration) using XLfit 4 software.
IC50 values and curve fits were obtained using Prism (GraphPad Software).
The degree of Btk inhibition was determined using one of the methods outlined in Example 36a, 36b and 36c.
For orientation: Time-resolved FRET reads energy transfer from a long-lived donor to a nearby acceptor.

pIC50: −log10 of the molar value.

Btk, sequence (Q06187 whole entry): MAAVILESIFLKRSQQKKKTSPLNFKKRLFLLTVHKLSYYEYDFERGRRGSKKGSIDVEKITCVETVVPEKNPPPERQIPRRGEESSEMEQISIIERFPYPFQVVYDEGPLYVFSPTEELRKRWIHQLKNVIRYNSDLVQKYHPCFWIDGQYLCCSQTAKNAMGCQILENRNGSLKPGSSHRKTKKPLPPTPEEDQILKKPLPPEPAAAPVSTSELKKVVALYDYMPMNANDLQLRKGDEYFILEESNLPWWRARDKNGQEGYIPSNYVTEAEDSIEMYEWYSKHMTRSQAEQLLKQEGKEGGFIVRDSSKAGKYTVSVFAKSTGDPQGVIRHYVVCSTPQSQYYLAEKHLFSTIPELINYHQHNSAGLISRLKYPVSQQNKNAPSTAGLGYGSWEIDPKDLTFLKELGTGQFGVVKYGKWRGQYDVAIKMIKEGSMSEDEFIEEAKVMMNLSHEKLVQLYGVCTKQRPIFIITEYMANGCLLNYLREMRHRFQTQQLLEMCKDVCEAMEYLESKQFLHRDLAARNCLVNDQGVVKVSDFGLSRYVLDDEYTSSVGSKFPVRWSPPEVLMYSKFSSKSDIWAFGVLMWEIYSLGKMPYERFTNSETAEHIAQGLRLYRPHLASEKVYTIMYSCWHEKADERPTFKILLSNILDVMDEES

With `CN(C(=O)/C=C/CN(C)C1CC1)c1cccc(-n2c(=O)n(-c3ccc(C(=O)c4ccccc4)cc3)c3c(N)ncnc32)c1` [Compound 27, (E)-N-(3-(6-amino-7-(4-benzoylphenyl)-8-oxo-7H-purin-9(8H)-yl)phenyl)-4-(cyclopropyl(methyl)amino)-N-methylbut-2-enamide], the pIC50 was > 7.00.

Regarding `CN(C)C/C=C/C(=O)N(C)c1cccc(-n2c(=O)n(-c3ccc(OC4CC4)cc3)c3c(N)ncnc32)c1` [Compound 28, (E)-N-(3-(6-amino-7-(4-cyclopropoxyphenyl)-8-oxo-7H-purin-9(8H)-yl)phenyl)-4-(dimethylamino)-N-methylbut-2-enamide], the pIC50 was 6.00 to 7.00.

Consider `C=CC(=O)N(C)c1cccc(-n2c(=O)n(-c3ccc(C(=O)Nc4ccccn4)cc3)c3c(N)ncnc32)c1` [Compound 29, 4-(6-amino-9-(3-(N-methylacrylamido)phenyl)-8-oxo-8,9-dihydro-7H-purin-7-yl)-N-(pyridin-2-yl)benzamide], for which the pIC50 is > 7.00.

For `C=CC(=O)N(C)c1cccc(-n2c(=O)n(-c3ccc(OC4CC4)cc3)c3c(N)ncnc32)c1` [Compound 30, N-(3-(6-amino-7-(4-cyclopropoxyphenyl)-8-oxo-7H-purin-9(8H)-yl)phenyl)-N-methylacrylamide], the pIC50 is > 7.00.

On to `CN(C(=O)CC#N)c1cccc(-n2c(=O)n(-c3ccc(Oc4ccccc4)cc3)c3c(N)ncnc32)c1` [Compound 33, N-(3-(6-amino-8-oxo-7-(4-phenoxyphenyl)-7H-purin-9(8H)-yl)phenyl)-2-cyano-N-methylacetamide], for which the pIC50 is 6.00 to 7.00.

Consider `CN(C(=O)C1(C#N)CC1)c1cccc(-n2c(=O)n(-c3ccc(Oc4ccccc4)cc3)c3c(N)ncnc32)c1` [Compound 34, N-(3-(6-amino-8-oxo-7-(4-phenoxyphenyl)-7H-purin-9(8H)-yl)phenyl)-1-cyano-N-methylcyclopropanecarboxamide], for which the pIC50 is 6.00 to 7.00.

In the case of `CNC(=O)/C(C#N)=C/c1cccc(-n2c(=O)n(-c3ccc(Oc4ccccc4)cc3)c3c(N)ncnc32)c1` [Compound 44, (E)-3-(3-(6-amino-8-oxo-7-(4-phenoxyphenyl)-7H-purin-9(8H)-yl)phenyl)-2-cyano-N-methylacrylamide], the pIC50 was > 7.00.

As for `CN(C(=O)/C=C/CN(C)C1CC1)c1cccc(-n2c(=O)n(-c3ccc(Oc4ccccc4)nc3)c3c(N)ncnc32)c1` [Compound 49, (E)-N-(3-(6-amino-8-oxo-7-(6-phenoxypyridin-3-yl)-7H-purin-9(8H)-yl)phenyl)-4-(cyclopropyl(methyl)amino)-N-methylbut-2-enamide], the negative logarithm of the IC50 (pIC50) was > 7.00.

Turning to `CN(C(=O)/C=C/CN1CCOCC1)c1cccc(-n2c(=O)n(-c3ccc(Oc4ccccc4)cc3)c3c(N)ncnc32)c1` [Compound 51, (E)-N-(3-(6-amino-8-oxo-7-(4-phenoxyphenyl)-7H-purin-9(8H)-yl)phenyl)-N-methyl-4-morpholinobut-2-enamide], the pIC50 was > 7.00.

As to `CN(C(=O)/C=C/CN1CCCC1)c1cccc(-n2c(=O)n(-c3ccc(Oc4ccccc4)cc3)c3c(N)ncnc32)c1` [Compound 52, (E)-N-(3-(6-amino-8-oxo-7-(4-phenoxyphenyl)-7H-purin-9(8H)-yl)phenyl)-N-methyl-4-(pyrrolidin-1-yl)but-2-enamide], the pIC50 is > 7.00.

Turning to `CN(C(=O)/C=C/CN(C)C1CC1)c1cccc(-n2c(=O)n(-c3ccc(Oc4ccccc4)cn3)c3c(N)ncnc32)c1` [Compound 58, (E)-N-(3-(6-amino-8-oxo-7-(5-phenoxypyridin-2-yl)-7H-purin-9(8H)-yl)phenyl)-4-(cyclopropyl(methyl)amino)-N-methylbut-2-enamide], the pIC50 was > 7.00.

For `CN(C(=O)/C=C/CN(C)C1CC1)c1cccc(-n2c(=O)n(-c3ccc(Oc4ccccn4)cc3)c3c(N)ncnc32)c1` [Compound 63, (E)-N-(3-(6-amino-8-oxo-7-(4-(pyridin-2-yloxy)phenyl)-7H-purin-9(8H)-yl)phenyl)-4-(cyclopropyl(methyl)amino)-N-methylbut-2-enamide], the pIC50 was > 7.00.

For `CN(C(=O)/C=C/CN(C)C1CC1)c1cccc(-n2c(=O)n(-c3ncc(Oc4ccccc4)cn3)c3c(N)ncnc32)c1` [Compound 69, (E)-N-(3-(6-amino-8-oxo-7-(5-phenoxypyrimidin-2-yl)-7H-purin-9(8H)-yl)phenyl)-4-(cyclopropyl(methyl)amino)-N-methylbut-2-enamide], the pIC50 was > 7.00.

By pIC50 is commonly meant the IC50 on a negative log10 scale, so that one unit is a factor of ten.

Source of the values: patent publication US9637487B2, “Purinone compounds as kinase inhibitors” (Pharmacyclics LLC, priority 2013, dated 2017).
